Read-outs that look alike come from different tables or passages of the source.
How the values were obtained:
[1] = tested on: Panel, CD-IGS and parental rat strains; experiment: Kidney histology of gentamicin- and vehicle-treated rats
Excerpt: Arrows point to regions of the proximal tabules damage scored as follows: 0=no damage, 1=25% injured tubules, 2=50% injured tubules and protein casts in lumens, 3=severe injury of >50% of tubules, 4=nearly complete necrosis of all tubules. Representative histological samples from the outbred Sprague Dawley rat CD-IGS (Panel B) and the four inbred parental strains Brown Norway, Fischer 344, Lewis and Wistar Kyoto rats (Panel C) are also shown.
We sought to maximize the range of genetic susceptibility to the adverse drug effects across the strains.

[2] = tested on: Sprague Dawley, LEW and F344 rats; conditions: cited from earlier work

gentamicin
damage to proximal tubules ([1]; F1 hybrids except WKYxBN): ≥ 50% | kidney damage by histology ([1]; LEW×F344 F1 rats, 240 mg/Kg/day): nearly complete necrosis of all proximal tubules | effect on the kidney ([1]; WKY rats): virtually no effect | injured tubules ([1]; WKY rats, both vehicle and gentamicin treated): 25% | renal damage by histology ([1]; WKYxBN F1 strain): little renal damage | tubules damaged ([1]; gentamicin-treated parental strains except WKY): greater than 50% | susceptibility to nephrotoxic effects ([2]; F344 compared with SD): more susceptible | nephrotoxic effects (protein in the urine) ([2]; LEW strain): sensitive | nephrotoxic effects (protein in the urine) ([2]; Sprague Dawley rats): resistant

From patent US20030237103A1, “Methods and compositions for pharmacological and toxicological evaluation of test agents” (priority 2002, published 2003)
